Drawing on ChEMBL document CHEMBL1150369, “Conformation-opioid activity relationships of bicyclic guanidines from 3D similarity analysis” (Bioorg Med Chem, 2008), this text covers IC50 for 33 compounds.

Structures are written as SMILES. A value given as a limit tells only on which side of the number the result lay.

Sequence of Delta-type opioid receptor (P41143 whole entry): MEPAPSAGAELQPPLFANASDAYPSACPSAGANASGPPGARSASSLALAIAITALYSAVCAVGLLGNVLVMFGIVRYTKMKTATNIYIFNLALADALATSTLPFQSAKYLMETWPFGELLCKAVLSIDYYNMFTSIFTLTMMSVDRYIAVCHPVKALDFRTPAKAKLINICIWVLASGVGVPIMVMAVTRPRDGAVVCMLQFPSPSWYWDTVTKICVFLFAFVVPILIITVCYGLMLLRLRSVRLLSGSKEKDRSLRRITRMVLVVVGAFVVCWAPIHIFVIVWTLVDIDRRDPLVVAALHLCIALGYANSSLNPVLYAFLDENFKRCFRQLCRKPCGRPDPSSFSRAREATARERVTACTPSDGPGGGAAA

The target in one experiment is Kappa-type opioid receptor (Cavia porcellus, UniProt P41144). Briefly: Displacement of [3H]U69593 from kappa opioid receptor in guinea pig brain homogenate. Format: tissue-based. (In a radioligand displacement assay an active substance lowers the binding of a labelled ligand.)
Sequence of Kappa-type opioid receptor (P41144 whole entry): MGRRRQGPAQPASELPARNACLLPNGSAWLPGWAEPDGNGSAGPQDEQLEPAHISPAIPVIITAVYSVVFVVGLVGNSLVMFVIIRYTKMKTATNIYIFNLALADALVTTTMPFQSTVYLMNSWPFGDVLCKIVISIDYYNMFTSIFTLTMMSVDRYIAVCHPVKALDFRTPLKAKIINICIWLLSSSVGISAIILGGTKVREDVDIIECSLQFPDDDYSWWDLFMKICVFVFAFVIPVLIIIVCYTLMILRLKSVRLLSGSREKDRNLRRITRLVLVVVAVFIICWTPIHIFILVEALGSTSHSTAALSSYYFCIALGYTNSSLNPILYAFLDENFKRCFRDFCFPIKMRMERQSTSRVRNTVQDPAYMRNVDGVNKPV
What is called IC50 is the concentration that gives 50% inhibition. Low values mean greater potency, high ones weaker potency. In turn, `CC(C)C[C@@H]1CN2C(=NC[C@@H]2C2CCCCC2)N1CCC12CC3CC(CC(C3)C1)C2` showed an IC50 of 1210 nM. That is a single-digit micromolar value. On the same count and under the same terms, the same measure for `C1CCC([C@H]2CN3C(=NC[C@@H]3C3CCCCC3)N2CCC23CC4CC(CC(C4)C2)C3)CC1`: 1490 nM; for `COc1ccc(C[C@H]2CN3C(=NC[C@@H]3C)N2CCC23CC4CC(CC(C4)C2)C3)cc1`: 1530 nM; for `CC(C)C[C@@H]1CN2C(=NC[C@H]2C2CCCCC2)N1CCC12CC3CC(CC(C3)C1)C2`: 1750 nM. Still for that read-out and setting: the same measure for `C[C@H]1CN=C2N(CCC34CC5CC(CC(C5)C3)C4)[C@@H](C3CCCCC3)CN21`: 1940 nM; for `CC(C)C[C@@H]1CN2C(=NC[C@@H]2C)N1CCC12CC3CC(CC(C3)C1)C2`: 3640 nM; for `C1CCC([C@H]2CN3C(=NC[C@H]3C3CCCCC3)N2CCC23CC4CC(CC(C4)C2)C3)CC1`: over 10000 nM.

On to `CCOc1ccc(C[C@@H]2CN3C(=NC[C@@H]3C)N2CCC23CC4CC(CC(C4)C2)C3)cc1`, for which the concentration for half-maximal inhibition (IC50) worked out at 151 nM. The same measure, in the same setting: the same measure for `CCOc1ccc(C[C@@H]2CN3C(=NC[C@@H]3C)N2CCC2CC3CCC2C3)cc1` (stereo not given in full): 185 nM; for `CCOc1ccc(C[C@@H]2CN3C(=NC[C@@H]3CC)N2CCC2CC3CCC2C3)cc1` (stereo not given in full): 321 nM.

In turn, `CCCC[C@@H]1CN=C2N(CCC3CC4CCC3C4)[C@H](Cc3ccc(OC)cc3)CN21` (stereo not given in full) had a concentration for half-maximal inhibition (IC50) of 430 nM. Still for that read-out and setting: then `COc1ccc(C[C@@H]2CN3C(=NC[C@H]3CC3CCCCC3)N2CCC23CC4CC(CC(C4)C2)C3)cc1`, with 457 nM; and `CCC[C@H]1CN=C2N(CC3CCC3)[C@@H](Cc3ccc(OC)cc3)CN21`, with over 10000 nM.

Turning to `COc1ccc(C[C@H]2CN3C(=NC[C@H]3CC3CCCCC3)N2CC2CCCC2)cc1`, the IC50 was over 10000 nM. Still for that read-out and setting: the same measure for `COc1ccc(C[C@H]2CN3C(=NC[C@@H]3C(C)C)N2CC2CCCC2)cc1`: over 10000 nM; for `CC(C)C[C@H]1CN2C(=NC[C@@H]2C)N1CCCC1CCCCC1`: over 10000 nM; for `CC(C)[C@H]1CN2C(=NC[C@@H]2C)N1CCCCC1CCCCC1`: over 10000 nM. Same read-out and setting: the same measure for `C[C@H]1CN2C(=NC[C@@H]2C)N1CCC12CC3CC(CC(C3)C1)C2`: over 10000 nM. Same read-out and setting: the same measure for `CCC[C@H]1CN=C2N(CC3CCC3)[C@H](Cc3ccc(OC)cc3)CN21`: over 10000 nM; for `COc1ccc(C[C@H]2CN3C(=NC[C@@H]3C3CCCCC3)N2CCC23CC4CC(CC(C4)C2)C3)cc1`: 4920 nM; for `COc1ccc(C[C@@H]2CN3C(=NC[C@@H]3C3CCCCC3)N2CCC23CC4CC(CC(C4)C2)C3)cc1`: over 10000 nM. Compound `COc1ccc(C[C@@H]2CN3C(=NC[C@H]3C3CCCCC3)N2CCC23CC4CC(CC(C4)C2)C3)cc1` showed an IC50 of over 10000 nM. On to `C1CCC([C@H]2CN3C(=NC[C@H]3C3CCCCC3)N2CCC2CC3CCC2C3)CC1` (stereo not given in full), for which the half-maximal inhibitory concentration (IC50) amounted to 524 nM. For `CC(C)C[C@@H]1CN2C(=NC[C@@H]2C)N1CCC1CC2CCC1C2` (stereo not given in full), the IC50 came out at 2310 nM. The same measure, in the same setting: the same measure for `CC(C)C[C@@H]1CN2C(=NC[C@@H]2C)N1CCCC1CCCCC1`: 5440 nM; for `CC(C)C[C@@H]1CN2C(=NC[C@H]2C2CCCCC2)N1CC1CCC(C)CC1` (stereo not given in full): 738 nM; for `CC(C)C[C@@H]1CN2C(=NC[C@@H]2C2CCCCC2)N1CC1CCC(C)CC1` (stereo not given in full): 999 nM. Still for that read-out and setting: then `CC1CCC(CN2C3=NC[C@H](C)N3C[C@@H]2C2CCCCC2)CC1` (stereo not given in full), with 5060 nM. On the same count and under the same terms, the same measure for `CC(C)C[C@@H]1CN2C(=NC[C@H]2C2CCCCC2)N1CCCC1CCCCC1`: 1770 nM; for `C1CCC([C@H]2CN3C(=NC[C@@H]3C3CCCCC3)N2CCC2CC3CCC2C3)CC1` (stereo not given in full): 560 nM. In the case of `CC(C)C[C@@H]1CN2C(=NC[C@@H]2C2CCCCC2)N1CCCC1CCCCC1`, the half-maximal inhibitory concentration (IC50) was 3740 nM.

Another experiment deals with Mu-type opioid receptor (Homo sapiens, UniProt P35372). Briefly: Binding affinity at mu opioid receptor.
Sequence of Mu-type opioid receptor (P35372 whole entry): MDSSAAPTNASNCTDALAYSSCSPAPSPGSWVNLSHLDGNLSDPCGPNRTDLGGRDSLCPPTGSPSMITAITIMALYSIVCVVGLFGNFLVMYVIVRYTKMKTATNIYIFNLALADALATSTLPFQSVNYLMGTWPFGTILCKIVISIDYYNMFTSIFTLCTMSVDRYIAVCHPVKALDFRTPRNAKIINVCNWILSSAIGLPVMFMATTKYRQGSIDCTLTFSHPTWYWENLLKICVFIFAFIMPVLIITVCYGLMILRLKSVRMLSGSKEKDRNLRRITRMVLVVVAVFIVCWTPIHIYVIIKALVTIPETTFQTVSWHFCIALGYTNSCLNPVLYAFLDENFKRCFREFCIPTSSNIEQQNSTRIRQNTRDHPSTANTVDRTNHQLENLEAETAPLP
On to `COc1ccc(C[C@@H]2CN3C(=NC[C@@H]3C)N2CCC2CC3CCC2C3)cc1` (stereo not given in full), for which the half-inhibitory concentration (IC50) came to 20.3 µM. With `COc1ccc(C[C@H]2CN3C(=NC[C@@H]3C)N2CCCC2CCCCC2)cc1`, the half-maximal inhibitory concentration (IC50) was 0.421 µM.

Another experiment has as its target Delta-type opioid receptor (Homo sapiens, UniProt P41143). The experiment in a line: Binding affinity at delta opioid receptor.
As to `COc1ccc(C[C@@H]2CN3C(=NC[C@@H]3C)N2CCC2CC3CCC2C3)cc1` (stereo not given in full), the IC50 is 2.07 µM. On the same count and under the same terms, then `COc1ccc(C[C@H]2CN3C(=NC[C@@H]3C)N2CCCC2CCCCC2)cc1`, with 5.46 µM.
